The source of these data is patent EP4647082A1, “PHARMACEUTICAL COMPOSITION COMPRISING A CGRP RECEPTOR ANTAGONIST FOR THE TREATMENT OF ACUTE MIGRAINE” (NUVIE BIO, Inc., priority 2024, dated 2025).

This series in a line: Degradation rates of 1 mg/mL solutions of AXN-001 at different pH and temperatures over 30 days. It counts as physicochemical. The procedure: To achieve the higher pH values, an isotonic 10 mM phosphate buffer was used.
The degradation rates were then determined for 1 mg/mL solutions of AXN-001 at pH 3.5, 4.5, 5.5, 6.5, and 7.5, when kept at 2-8°C, 25°C, 40°C, and 60°C for 30 days. Table 1: Degradation rates
Degradation rates at 2-8° C were not determined ("n.d.") because degradation could not be measured at thirty days (with the exception of pH 7.5).

The structures appear in SMILES notation. Bridge positions count the residues as written; N and C are the ends. Square brackets hold non-standard residues; d marks the D form. Peptide text beside a SMILES is read from it. * marks the point of attachment. Phe(2-CONH2) = NC(=O)c1ccccc1C[C@H](N)C(=O)O; Orn(iPr) = CC(C)NCCC[C@H](N)C(=O)O; Oxazole2carbonyl = O=C(c1ncco1)*; 3Pal = N[C@@H](Cc1cccnc1)C(=O)O

With `CC(C)NCCC[C@@H]1NC(=O)[C@@H](NC(=O)[C@H](Cc2ccccc2C(N)=O)NC(=O)[C@H](NC(=O)c2ncco2)C(C)C)CSSC[C@@H](C(=O)N[C@@H](Cc2cccnc2)C(N)=O)NC(=O)[C@H](Cc2ccccc2)NC(=O)[C@@H]2CCCN2C(=O)CNC(=O)[C@H](C(C)C)NC(=O)[C@H](CC(=O)O)NC1=O` [AXN-001, Oxazole-2-carbonyl-D-Val-Phe(2-Cbm)-c(Cys-Orn (iPr)-Asp-Val-Gly-Pro-Phe-Cys)-3Pal-NH2] (Oxazole2carbonyl-[dV][Phe(2-CONH2)]C[Orn(iPr)]DVGPFC[3Pal]-NH2; disulfide 3-10), the “Degradation Rates” value came out at 0.058 %/day (pH 3.5, 25°C); 0.20 %/day (pH 3.5, 40°C); 1.50 %/day (pH 3.5, 60°C); 0.019 %/day (pH 4.5, 25°C); 0.12 %/day (pH 4.5, 40°C); 1.19 %/day (pH 4.5, 60°C). In addition, the “Degradation Rates” value by setting is: (pH 5.5, 25°C) 0.007 %/day; (pH 5.5, 40°C) 0.23 %/day; (pH 5.5, 60°C) 3.18 %/day; (pH 6.5, 25°C) 0.039 %/day; (pH 6.5, 40°C) 0.54 %/day; (pH 6.5, 60°C) 3.47 %/day. Moreover, the “Degradation Rates” value by setting is: (pH 7.5, 2-8°C) 0.02 %/day; (pH 7.5, 25°C) 0.605 %/day; (pH 7.5, 40°C) 1.62 %/day; (pH 7.5, 60°C) 5.55 %/day.
